For experiment [1], the target named is T1, Carbonic anhydrase (Methanobacterium thermoautotrophicum, UniProt Q50565).
T1 sequence (Q50565 whole entry): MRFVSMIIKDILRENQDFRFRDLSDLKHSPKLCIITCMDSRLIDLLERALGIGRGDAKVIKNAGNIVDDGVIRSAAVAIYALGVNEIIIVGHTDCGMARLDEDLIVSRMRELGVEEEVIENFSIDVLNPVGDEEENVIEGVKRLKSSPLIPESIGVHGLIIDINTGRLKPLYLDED

The target of experiment [2] is T2, Carbonic anhydrase (Methanosarcina thermophila, UniProt P40881).
T2 sequence (P40881 whole entry): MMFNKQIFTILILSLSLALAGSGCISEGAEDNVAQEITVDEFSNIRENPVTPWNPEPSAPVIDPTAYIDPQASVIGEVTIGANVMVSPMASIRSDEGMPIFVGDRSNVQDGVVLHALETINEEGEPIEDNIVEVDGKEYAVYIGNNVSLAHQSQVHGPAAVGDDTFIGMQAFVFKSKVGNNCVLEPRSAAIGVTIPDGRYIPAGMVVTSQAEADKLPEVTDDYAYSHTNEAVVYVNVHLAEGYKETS

In experiment [3] the target is T2, Carbonic anhydrase. The source holds these as a separate data set.

SMILES strings stand for the structures.

As to `Nc1ccc(S(=O)(=O)NCc2ccc(S(N)(=O)=O)cc2)cc1`, the Ki on Carbonic anhydrase [1] turned out to be 52.4 µM; on Carbonic anhydrase [2] it was 6.36 µM; on Carbonic anhydrase [3], 0.18 µM.

Take `Nc1ccc(S(N)(=O)=O)cc1I`: the Ki came out at 98 µM at Carbonic anhydrase [1], 0.66 µM on Carbonic anhydrase [2] and 0.28 µM at Carbonic anhydrase [3].

Take `Nc1ccc(S(N)(=O)=O)cc1Br`: the Ki at Carbonic anhydrase [1] is 77 µM; on Carbonic anhydrase [2] it was 0.28 µM; on Carbonic anhydrase [3] it was 1.72 µM.

`Nc1cccc(S(N)(=O)=O)c1`: the figures for the Ki on Carbonic anhydrase [1], at Carbonic anhydrase [2] and on Carbonic anhydrase [3] were 14.3 µM, 1.24 µM and 0.17 µM, respectively.

In the case of `Nc1ccc(S(N)(=O)=O)cc1F`, the figures for the Ki at Carbonic anhydrase [1], at Carbonic anhydrase [2] and on Carbonic anhydrase [3] were 53.4 µM, 0.42 µM and 0.97 µM, respectively.

At Carbonic anhydrase [1], `NCCc1ccc(S(N)(=O)=O)cc1` came in with a Ki of 25.7 µM.

Consider `Nc1ccc(S(N)(=O)=O)cc1Cl`, for which the values for the Ki on Carbonic anhydrase [2] and on Carbonic anhydrase [3] were 0.74 µM and 0.14 µM, respectively.

`NNc1ccc(S(N)(=O)=O)cc1`: the inhibition constant (Ki) came to 127 µM at Carbonic anhydrase [1], 0.22 µM on Carbonic anhydrase [2] and 2.2 µM at Carbonic anhydrase [3].

The compound `Nc1cc(C(F)(F)F)c(S(N)(=O)=O)cc1S(N)(=O)=O` [2,4-DISULFAMYLTRIFLUOROMETHYLANILINE] registered an inhibitory constant (Ki) at Carbonic anhydrase [1] of 50 µM.

For `Cc1ccc(-c2cc(C(F)(F)F)nn2-c2ccc(S(N)(=O)=O)cc2)cc1` [CELECOXIB], the inhibition constant Ki came to 38.5 µM on Carbonic anhydrase [1], 1.01 µM on Carbonic anhydrase [2] and 0.14 µM at Carbonic anhydrase [3].

On to `CCOc1ccc2nc(S(N)(=O)=O)sc2c1` [ETHOXZOLAMIDE], for which, at Carbonic anhydrase [2], the affinity corresponds to a Ki of 0.74 µM. In other words, the sub-micromolar range.

`NCc1ccc(S(N)(=O)=O)cc1` [MAFENIDE]: the results for the inhibition constant Ki at Carbonic anhydrase [1], on Carbonic anhydrase [2] and at Carbonic anhydrase [3] were 28.5 µM, 8.5 µM and 0.35 µM, respectively.

`NS(=O)(=O)O` [SULFAMATE]: the inhibitory constant (Ki) came out at 103000 µM at Carbonic anhydrase [1], 3.36 µM at Carbonic anhydrase [2] and 0.09 µM on Carbonic anhydrase [3].

In the case of `NS(N)(=O)=O` [SULFAMIDE], the inhibition constant Ki was determined as 440000 µM at Carbonic anhydrase [1] and 5.96 µM at Carbonic anhydrase [2].

Turning to `Nc1ccc(S(N)(=O)=O)cc1` [SULFANILAMIDE], the Ki at Carbonic anhydrase [1] is 57.8 µM; on Carbonic anhydrase [2], 3.93 µM; at Carbonic anhydrase [3], 0.25 µM.

On to `CC1(C)O[C@@H]2[C@@H](CO[C@@]3(COS(N)(=O)=O)OC(C)(C)O[C@@H]23)O1` [TOPIRAMATE], for which the Ki came out at 23.5 µM on Carbonic anhydrase [1] and 0.12 µM at Carbonic anhydrase [2].

By Ki is commonly meant the dissociation constant of the complex between target and ligand, obtained from inhibition or displacement. Higher therefore signals lower affinity.
